Earlier results in patent publication US12133903B2, “Oral care article comprising a delivery carrier and solid hydrophilic particles comprising a bleaching agent” (The Procter & Gamble Company, priority 2020, dated 2024).

Settings: in water; supplier data sheet / Safety Data Sheet / Wikipedia

SMILES: NC(N)=O.OO [Urea Hydrogen Peroxide Adduct]
- Solubility: 80 parts per 100 parts of water
